Data set [1] in a line: Hepatocyte stability assay, human. It is filed as in vitro ADME. Conditions: 10 μM compound, 0.5×10^6 cells/mL, 60 min; for half-life at 10 μM: cryo-preserved hepatocytes, read-out: T½. The text has this: (§1) Defrosted cryo-preserved hepatocytes (viability >70%) were used to determine the metabolic stability of a compound via calculation of intrinsic clearance (CIint; a measure of the removal of a compound from the liver in the absence of blood flow and cell binding). Clearance data are particularly important for in vitro work as they can be used in combination with in vivo data to predict the half-life and oral bioavailability of a drug.
(§2) The metabolic stability in hepatocytes assay involved a time-dependent reaction using both positive and negative controls. The cells must be pre-incubated at 37° C. then spiked with test compound (and positive control); samples taken at pre-determined time intervals were analysed to monitor the change in concentration of the initial drug compound over 60 minutes. A buffer incubation reaction (with no hepatocytes present) acted as a negative control and two cocktail solutions, containing compounds with known high and low clearance values (verapamil/7-hydroxycoumarin and propranolol/diltiazem), acted as positive controls. • 1. The assay was run with a cell concentration of 0.5×10^6 cells/mL in Leibovitz buffer. • 2. All compounds and controls were run in duplicate. • 3. Compound concentration was 10 μM. • 4. All compounds and controls were incubated with both cells and buffer to show turnover is due to hepatic metabolism. • 5. All wells on the incubation plate had 326.7 μL of either cells or buffer added. • 6. Prior to assay, cell and buffer-only incubation plates were preincubated for 10 mins at 37° C. • 7. The assay was initiated by adding compounds, 3.3 μL of 1 mM in 10% DMSO-90% Buffer; final DMSO concentration is 0.1%. • 8. Samples were taken at regular timepoints (0, 5, 10, 20, 40, 60 min) until 60 mins. • 9. Sample volume was 40 μL and added to 160 μL of crash solvent (acetonitrile with internal standard) and stored on ice. • 10. At the end of the assay, the crash plates were centrifuged at 3500 rpm for 20 mins at 4° C. • 11. 80 μL of clear supernatant was removed and mixed with 80 μL of deionised water before being analysed by LC-MS/MS.
(§3) Raw LC-MS/MS data were exported to, and analysed in, Microsoft Excel for determination of intrinsic clearance. The percentage remaining of a compound was monitored using the peak area of the initial concentration as 100%. Intrinsic clearance and half-life values were calculated using a graph of the natural log of percentage remaining versus the time of reaction in minutes.

Another data set concerns IL-1β. Kind of data set: THP-1 AlphaLISA IL-1β cytokine assay (PMA-differentiated THP-1, LPS then nigericin). It is filed as cell-based. Conditions: 30 min pre-incubation, LPS 24 hr, nigericin 1 hour. On the procedure:
(§4) Measuring Inhibitory Effects on IL-1β, and IL-6 Cytokine Output from THP-1s
(§5) The cytokine inhibition profiles of compounds of formula (I) were determined in a differentiated THP-1 cell assay. All assays were performed in RPMI-1640 growth medium (Gibco), supplemented with 10% fetal bovine serum (FBS; Gibco), 1% penicillin-streptomycin and 1% sodium pyruvate unless specified otherwise. The IL-1β and IL-6 cytokine inhibition assays were each run in a background of differentiated THP-1 cells as described below. All reagents described were from Sigma-Aldrich unless specified otherwise. Compounds were prepared as 10 mM DMSO stocks.
(§6) THP-1 cells were expanded as a suspension up to 80% confluence in appropriate growth medium. Cells were harvested, suspended, and treated with an appropriate concentration of phorbol 12-myristate 13-acetate (PMA) over a 72 hr period (37° C./5% CO2).
(§7) Following 72 hrs of THP-1 cell incubation, cellular medium was removed and replaced with fresh growth media containing 1% of FBS. Working concentrations of compounds were prepared separately in 10% FBS treated growth medium and pre-incubated with the cells for 30 minutes (37° C./5% CO2). Following the 30 minute compound pre-incubation, THP-1s were treated with an appropriate concentration of LPS and the THP-1s were subsequently incubated for a 24 hr period (37° C./5% CO2). An appropriate final concentration of Nigericin was then dispensed into the THP-1 plates and incubated for 1 hour (37° C./5% CO2) before THP-1 supernatants were harvested and collected in separate polypropylene 96-well holding plates.
(§8) Reagents from each of the IL-1β and IL-6 commercial kits (Perkin Elmer) were prepared and run according to the manufacturer's instructions. Subsequently, fluorescence signal detection in a microplate reader was measured (EnVision® Multilabel Reader, Perkin Elmer).
(§9) Percentage inhibition was calculated per cytokine by normalizing the sample data to the high and low controls used within each plate (+/−LPS respectively).
In general terms: In Alpha technology, singlet oxygen from a donor bead excites a nearby acceptor bead.

The next data set has as its system IL-6. The experiment in a line: THP-1 AlphaLISA IL-6 cytokine assay (PMA-differentiated THP-1, LPS then nigericin). In kind it is cell-based. The following applies: differentiated THP-1 cells, 30 min pre-incubation, LPS 24 hr, nigericin 1 hour. On the procedure:
as §4, §5, §6, §7, §8, §9

The nature of data set [2]: Hepatocyte stability assay, mouse. It is filed as in vitro ADME. Conditions: 10 μM compound, 0.5×10^6 cells/mL, 60 min; for half-life at 10 μM: cryo-preserved hepatocytes, read-out: T½.
Excerpt: as §1, §2, §3

The next data set relates to NRF2. The experiment in a line: NRF2 activation assay (DiscoverX PathHunter NRF2 translocation kit, U2OS cells). It is filed as cell-based. The following applies: −GSH.
[3] abbreviates: Homo sapiens, THP-1, differentiated THP-1 cells.

A word on the IC50: it is the point on the concentration scale where inhibition reaches its midpoint. A high value points to weaker potency in that assay. Take `C=C(CC(=O)O)C(=O)OC1CCCc2cc(C(F)(F)F)ccc21` (single isomer, unassigned) [Example 7, 3-(((6-(trifluoromethyl)-1,2,3,4-tetrahydronaphthalen-1-yl)oxy)carbonyl)but-3-enoic acid]: the CIint was determined as 8 μL min^−1 10^−6 cells in data set [1] (Human hepatocytes) and 11 μL min^−1 10^−6 cells in data set [2] (Mouse hepatocytes). Moreover, the half-life at 10 μM in data set [1] is 3.65 h; in data set [2], 1.97 h. For the same compound, the IC50 with IL-1β (setting [3]) is 7.9 µM; in the data set with IL-6 (Homo sapiens), 65.6 µM.

A word on the EC50: it is the concentration needed to bring the measured effect to its halfway point. `C=C(CC(=O)O)C(=O)OC` [1-monomethyl itaconate, reference compound] registered an EC50 with NRF2 (U2OS PathHunter cells, 6 hours) of 30.1 µM. Further, the “NRF2 activation Emax, −GSH” value in the data set with NRF2 (normalised to dimethyl fumarate high control) is reported as 44%. The IC50 with IL-1β (differentiated THP-1 cells) and with IL-6 was above 100 µM each time.

With `C=C(CC(=O)OCCCCCCCC)C(=O)O` [4-octyl itaconate, reference compound], in data set [1] (Human hepatocytes), the CIint is recorded as 401 μL min^−1 10^−6 cells and the T½ was 4 min. Also, in data set [2] (Mouse hepatocytes), the CIint amounted to 351 μL min^−1 10^−6 cells and the T½ was 4 min.

On to `C=C(CC(=O)O)C(=O)O[C@@H](C)c1ccc(C(F)(F)F)cc1` [Example 1, (S)-3-((1-(4-(trifluoromethyl)phenyl)ethoxy)carbonyl)but-3-enoic acid], for which the CIint in data set [1] (Human hepatocytes) and in data set [2] (Mouse hepatocytes) was below 3 μL min^−1 10^−6 cells in each case. The half-life at 10 μM in data set [1] and in data set [2] was above 7.67 h each time. The IC50 with IL-1β (setting [3]) was 5.4 µM; in the data set with IL-6 (Homo sapiens) it was 54.8 µM.

For the compound `C=C(CC(=O)O)C(=O)OC1(c2ccc(C(F)(F)F)c(F)c2)CCC1` [Example 3, 3-((1-(3-fluoro-4-(trifluoromethyl)phenyl)cyclobutoxy)carbonyl)but-3-enoic acid], the CIint in data set [1] (Human hepatocytes) and in data set [2] (Mouse hepatocytes) was below 3 μL min^−1 10^−6 cells throughout. The half-life at 10 μM in data set [1] and in data set [2] was above 7.67 h each time. The results for the IC50 with IL-1β (setting [3]) and in the data set on IL-6 (Homo sapiens) were 4.8 µM and 53.7 µM, respectively.

As for `C=C(CC(=O)O)C(=O)OC1(c2ccc(C(F)(F)F)cc2)COC1` [Example 4, 3-(((3-(4-(trifluoromethyl)phenyl)oxetan-3-yl)oxy)carbonyl)but-3-enoic acid], the CIint worked out at 6 μL min^−1 10^−6 cells in data set [1] (Human hepatocytes) and 8 μL min^−1 10^−6 cells in data set [2] (Mouse hepatocytes). Moreover, the half-life at 10 μM in data set [1] was found to be 5.23 h; in data set [2], 3.65 h. Moreover, the IC50 in the data set with IL-1β (setting [3]) was 9.2 µM; in the data set with IL-6 (Homo sapiens), above 100 µM.

Turning to `C=C(CC(=O)O)C(=O)OC1(c2ccc(C(F)(F)F)cn2)CCC1` [Example 5, 3-((1-(5-(trifluoromethyl)pyridin-2-yl)cyclobutoxy)carbonyl)but-3-enoic acid], the CIint in data set [1] (Human hepatocytes) and in data set [2] (Mouse hepatocytes) was below 3 μL min^−1 10^−6 cells throughout. The half-life at 10 μM in data set [1] and in data set [2] was above 7.67 h throughout. The IC50 in the data set on IL-1β (setting [3]) was 9 µM; in the data set with IL-6 (Homo sapiens), above 31.6 µM.

Regarding `C=C(CC(=O)O)C(=O)OC1(c2ccc(C(F)(F)F)s2)CCC1` [Example 6, 3-((1-(5-(trifluoromethyl)thiophen-2-yl)cyclobutoxy)carbonyl)but-3-enoic acid], the CIint is 13 μL min^−1 10^−6 cells in data set [1] (Human hepatocytes) and below 3 μL min^−1 10^−6 cells in data set [2] (Mouse hepatocytes). Further, the half-life at 10 μM in data set [1] was 2.38 h; in data set [2] it was above 7.67 h. The IC50 was 9.5 µM in the data set with IL-1β (setting [3]) and above 100 µM in the data set with IL-6 (Homo sapiens).

For the compound `C=C(CC(=O)NC)C(=O)OC1(c2ccc(C(F)(F)F)cc2)CCC1` [Example 9, 1-(4-(trifluoromethyl)phenyl)cyclobutyl 4-(methylamino)-2-methylene-4-oxobutanoate], the values for the CIint in data set [1] (Human hepatocytes) and in data set [2] (Mouse hepatocytes) were 27 μL min^−1 10^−6 cells and 449 μL min^−1 10^−6 cells, respectively. Moreover, the half-life at 10 μM in data set [1] was 0.733 h; in data set [2], 0.05 h. Moreover, the results for the IC50 in the data set on IL-1β (setting [3]) and with IL-6 (Homo sapiens) were 12.6 µM and 11.1 µM, respectively.

Turning to `C=C(CC(=O)N(C)C)C(=O)OC1(c2ccc(C(F)(F)F)cc2)CCC1` [Example 10, 1-(4-(trifluoromethyl)phenyl)cyclobutyl 4-(dimethylamino)-2-methylene-4-oxobutanoate], the CIint was 98 μL min^−1 10^−6 cells in data set [1] (Human hepatocytes) and above 460 μL min^−1 10^−6 cells in data set [2] (Mouse hepatocytes). Moreover, the results for the half-life at 10 μM in data set [1] and in data set [2] were 0.2 h and below 0.05 h, respectively. Besides, the IC50 in the data set on IL-1β (setting [3]) was determined as 60 µM; in the data set with IL-6 (Homo sapiens) it was 13.8 µM.

With `C=C(CC(=O)NCCN(C)C)C(=O)OC1(c2ccc(C(F)(F)F)cc2)CCC1` [Example 12, 1-(4-(trifluoromethyl)phenyl)cyclobutyl 4-((2-(dimethylamino)ethyl)amino)-2-methylene-4-oxobutanoate], the CIint in data set [1] (Human hepatocytes) is on record as 59 μL min^−1 10^−6 cells; in data set [2] (Mouse hepatocytes) it was 138 μL min^−1 10^−6 cells. Also, the half-life at 10 μM in data set [1] was determined as 0.417 h; in data set [2], 0.15 h. Further, the IC50 in the data set with IL-1β (setting [3]) is 3.1 µM; in the data set with IL-6 (Homo sapiens), 4 µM.

With `C=C(CC(=O)NCc1nccn1C)C(=O)OC1(c2ccc(C(F)(F)F)cc2)CCC1` [Example 16, 1-(4-(trifluoromethyl)phenyl)cyclobutyl 4-(((1-methyl-1H-imidazol-2-yl)methyl)amino)-2-methylene-4-oxobutanoate], the CIint was 114 μL min^−1 10^−6 cells in data set [1] (Human hepatocytes) and above 460 μL min^−1 10^−6 cells in data set [2] (Mouse hepatocytes). Further, the half-life at 10 μM is 0.183 h in data set [1] and below 0.05 h in data set [2]. Moreover, the 50% inhibitory concentration (IC50) in the data set with IL-1β (setting [3]) came to 5.9 µM; in the data set with IL-6 (Homo sapiens), 5.3 µM.

For `C=C(CC(=O)NC(CO)C(N)=O)C(=O)OC1(c2ccc(C(F)(F)F)cc2)CCC1` (stereo not drawn) [Example 17, 1-(4-(trifluoromethyl)phenyl)cyclobutyl 4-((1-amino-3-hydroxy-1-oxopropan-2-yl)amino)-2-methylene-4-oxobutanoate], the IC50 in the data set on IL-1β (setting [3]) worked out at 15.3 µM; in the data set with IL-6 (Homo sapiens) it was 12.4 µM.

For `C=C(CC(=O)OC)C(=O)OC` [dimethyl itaconate, reference compound], the IC50 in the data set on IL-1β (setting [3]) and with IL-6 (Homo sapiens) was above 100 µM in each case.

The values are drawn from US20240360067A1, “DERIVATIVES OF ITACONIC ACID AND THEIR USE AS ANTI-INFLAMMATORY AGENTS” (Sitryx Therapeutics Limited, priority 2021, published 2024).
